Assay results published in patent US11325892B2, “Compounds and methods for treating cancer” (Mayo Foundation for Medical Education and Research, priority 2014, dated 2022).
Read-outs that look alike come from different tables or passages of the source.

Key:
Assay type in all cases: cell-based
[1] = test system: A498, ACHN, and Caki1 cell lines; test: Oleic acid (OA) rescue assay of cell proliferation in ccRCC cells; settings: EC50 dose of compound with OA (5 μg/μL); all three cell lines
Description: (§1) Cells were seeded at 5,000 cells/well in clear-bottom 96-well plates in triplicate in Maintenance Media. Drug treatment was applied at a concentration of 1:1000 in reduced serum (3%) Maintenance Media. After 72 hours, cells were washed with PBS, and stored at −80° C. prior to analysis using CyQuant® Proliferation Analysis Kit (Invitrogen) as per manufacturers' protocol for relative fluorescence units. Alternatively, cells were plated 2×10^5/well in 12-well plates (Midwest Scientific) in triplicate prior to drug treatment. After 120 hour treatment, cell number was established using a Coulter Particle Counter (Beckman). Or, cells were plated (0.5 or 1×10^5/well) in 24-well plates (Midwest Scientific), 3×. After 72 hour treatment, cell number established using Coulter Particle Counter (Beckman). Oleic acid-albumin (Sigma Aldrich) was added to media at 5 μM, and was applied adjuvant to drug treatment. Drug stocks were prepared in DMSO (Sigma) at 1000×. EC50 dosing per cell line was calculated using CalcuSyn® analytical software.
A498, ACHN, and Caki1 cell lines were treated with the EC50 dose of each MF-438, ChemBL375265, SSI-1, SSI-4, SSI-3, and SSI-2 with or without concomitant application of OA (5 μg/μL). […] Representative images of A498 cell morphology and density treated with each compound +/−OA are shown in (FIG. 2B).

[2] = test system: ATF6-UPRE luciferase reporter in A498 and ACHN cells; test: ATF6-UPRE luciferase reporter assay; settings: EC50 dose, 24H; both cell lines A498 and ACHN; completely blocked with OA
Description: A498 and ACHN cells were transiently transfected with p5×ATF6-GL3 UPR luciferase reporter (Addgene plasmid#11976) and pRL-CMV-renilla (Promega) using Lipofectamine 2000 (Invitrogen). Cells were treated as indicated for 24H, prior to collection and analysis using Promega Dual Luciferase assay kit per manufacturer's specifications. Luciferase activity was measured using Veritas Luminometer (Promega); and results are reported as relative luminescence.
(§2) Activating transcription factor 6 (ATF6) is a key regulator of the unfolded protein response (UPR) that recognizes unfolded protein response elements (UPRE) in the promoter regions of several key mediators of the ER stress response, initiating their transcription (Wang Y, Shen J, Arenzana N, Tirasophon W, Kaufman R J, Prywes R. Activation of ATF6 and an ATF6 DNA binding site by the endoplasmic reticulum stress response. J Biol Chem. Sep. 1, 2000; 275(35):27013-27020). A498 and ACHN transfected with an ATF6-UPRE luciferase reporter were treated with the EC50 doses of ChemBL375265, SSI-1, SSI-4, SSI-3, and SSI-2 with or without OA supplementation were evaluated in order to determine whether the identified compounds could recapitulate activation of the UPR. […] Upregulation of the UPR markers BiP (heat shock 70 kDa protein, GRP78) and CHOP (damage inducible transcript 3, DDIT3) was evaluated by Western blot in A498 and ACHN cells treated with the EC50 doses of ChemBL375265, SSI-1, SSI-4, SSI-3, and SSI-2 with or without OA supplementation.

[3] = test system: BiP and CHOP expression in A498 and ACHN cells; test: Western blot for UPR markers BiP and CHOP; settings: EC50 dose; both cell lines; blocked with concomitant OA treatment
Description: Protein extraction and western blot analysis was performed as previously described (Copland J A, Marlow L A, Kurakata S, et al. Novel high-affinity PPARgamma agonist alone and in combination with paclitaxel inhibits human anaplastic thyroid carcinoma tumor growth via p21WAF1/CIP1. Oncogene. Apr 13 2006; 25(16):2304-2317). Primary antibodies included SCD1 (Sigma-Aldrich, #HPA012107), BiP (Cell Signaling, #3183), CHOP (Cell Signaling, #2895), sXBP1(Santa Cruz Biotechnology, #sc-7160), PARP(Cell Signaling, #9542), and β-actin (Sigma-Aldrich, #A5441).
as §2

[4] = test system: HK2, a transformed renal epithelial cell line; test: High-throughput proliferative screen, non-cancerous cells
Description: as §1
In order to identify potential SCD1 inhibitors, a high-throughput proliferative-based screening method was used, with four ccRCC cell lines including A498, ACHN, Caki1, and Caki2. The SCD1 inhibitor MF-438 was included as a positive control. Known compounds ChemBL375265 (Liu G, Lynch J K, Freeman J, et al. Discovery of potent, selective, orally bioavailable stearoyl-CoA desaturase 1 inhibitors. Journal of medicinal chemistry. Jun. 28, 2007; 50(13): 3086-3100) (SetA.100) and SAR707 (Voss M D, Zoller G, Matter H, et al. Discovery and pharmacological characterization of SAR707 as novel and selective small molecule inhibitor of stearoyl-CoA desaturase (SCD1). European journal of pharmacology. May 5, 2013; 707(1-3): 140-146) (TC03.100) were included as single-blinded positive controls, and are indicated with an asterisk (*). […]

kidney cancer cells = test: Combination with mTor inhibitor temsirolimus, cell proliferation; settings: different concentrations with 0, 0.1, 1, and 10 nM temsirolimus
SNU449 HCC cells = test: SNU449 cell proliferation (cellular DNA, Hoechst); settings: Homo sapiens
Description: SNU449 HCC cells were plated at 20,000 cells/well in 12-well plates. The next day, cells were treated with SSI-4, sorafenib or sorafenib plus SSI-4 at the indicated doses. […] On day 5, cells were frozen, DNA isolated and quantitated by […] (Hoechst reagent) in a spectrophotometer. Cellular DNA is directly proportional to cell number and is commonly used as a measure of cell number. All doses are in replicates of three with the mean +/−standard deviation determined.

CNC(=O)c1ccnc(NC(=O)N2CCC(Oc3ccccc3Cl)CC2)c1 [SSI-4, 2-{[4-(2-Chlorophenoxy)piperidine-1-carbonyl]amino}-N-methylpyridine-4-carboxamide]
rescue of cell proliferation with OA [1]: Near total rescue of cell proliferation | luciferase activity [2]: significant upregulation of luciferase activity | BiP and CHOP expression [3]: strongly induced both BiP and CHOP expression | reduction in cell proliferation [4]: approximately 20% | kidney cancer cell proliferation (kidney cancer cells): reduced kidney cancer cell proliferation | IC50 (SNU449 HCC cells; SNU-449, SNU449, read-out: IC50 (dose at which 50% of cell proliferation is inhibited)): 0.0032 µM

CNC(=O)c1cc(Oc2ccc(NC(=O)Nc3ccc(Cl)c(C(F)(F)F)c3)cc2)ccn1 [sorafenib]
IC50 (SNU449 HCC cells; SNU-449, read-out: IC50 (dose at which 50% of cell proliferation is inhibited)): 2 µM
